Measurements taken from US20230085307A1, “PYRIDAZINONE COMPOUND AND HERBICIDE” (NISSAN CHEMICAL CORPORATION, priority 2019, published 2023).

Columns and labels:
barnyard grass [1] = test: Test Example 3: herbicidal effect by foliage application, Wagner pot (Table 18, symbol H); assay type: in vivo, barnyard grass (Echinochloa crus-galli)
Procedure, shortened: (§1)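 Plants were sown in alluvial soil held under 0.1–0.5 cm standing water and grown 14 days in a greenhouse at 25–30 °C. An emulsifiable formulation, water-diluted to the set dose, was then sprayed onto the foliage, and effects were scored three weeks later using previously defined criteria.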

Chinese sprangletop = test: Test Example 3: herbicidal effect by foliage application, Wagner pot (Table 18, symbol D); assay type: in vivo, chinese sprangletop (Leptochloa chinensis)
Procedure, shortened: as §1

rice flat sedge = test: Test Example 3: herbicidal effect by foliage application, Wagner pot (Table 18, symbol E); assay type: in vivo, rice flat sedge (Cyperus iria)
Procedure, shortened: as §1

southern crabgrass [2] = test: Test Example 4: herbicidal effect by soil treatment (Table 19, symbol F); assay type: in vivo, southern crabgrass (Digitaria ciliaris)
Procedure, shortened: (§2)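 Applied as a water-diluted emulsion, the compound was sprayed onto soil covering newly sown seeds. Evaluation came three weeks after application, in a greenhouse held at 25° C. to 30° C.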

green foxtail [3] = test: Test Example 4: herbicidal effect by soil treatment (Table 19, symbol G); assay type: in vivo, green foxtail (Setaria viridis)
Procedure, shortened: as §2

barnyard grass [4] = test: Test Example 4: herbicidal effect by soil treatment (Table 19, symbol H); assay type: in vivo, barnyard grass (Echinochloa crus-galli)
Procedure, shortened: as §2

wild oat [5] = test: Test Example 4: herbicidal effect by soil treatment (Table 19, symbol I); assay type: in vivo, wild oat (Avena fatua)
Procedure, shortened: as §2

blackgrass [6] = test: Test Example 4: herbicidal effect by soil treatment (Table 19, symbol J); assay type: in vivo, blackgrass (Alopecurus myosuroides)
Procedure, shortened: as §2

Italian ryegrass [7] = test: Test Example 4: herbicidal effect by soil treatment (Table 19, symbol K); assay type: in vivo, Italian ryegrass (Lolium multiflorum)
Procedure, shortened: as §2

windgrass [8] = test: Test Example 4: herbicidal effect by soil treatment (Table 19, symbol L); assay type: in vivo, windgrass (Apera spica-venti)
Procedure, shortened: as §2

velvetleaf [9] = test: Test Example 4: herbicidal effect by soil treatment (Table 19, symbol M); assay type: in vivo, velvetleaf (Abutilon theophrasti)
Procedure, shortened: as §2

redroot pigweed [10] = test: Test Example 4: herbicidal effect by soil treatment (Table 19, symbol N); assay type: in vivo, redroot pigweed (Amaranthus retroflexus)
Procedure, shortened: as §2

lambsquarters [11] = test: Test Example 4: herbicidal effect by soil treatment (Table 19, symbol O); assay type: in vivo, lambsquarters (Chenopodium album)
Procedure, shortened: as §2

chickweed [12] = test: Test Example 4: herbicidal effect by soil treatment (Table 19, symbol P); assay type: in vivo, common chickweed (Stellaria media)
Procedure, shortened: as §2

persian speedwell [13] = test: Test Example 4: herbicidal effect by soil treatment (Table 19, symbol R); assay type: in vivo, Persian speedwell (Veronica persica)
Procedure, shortened: as §2

southern crabgrass [14] = test: Test Example 5: herbicidal effect by foliage application, plastic box (Table 20, symbol F); assay type: in vivo, southern crabgrass (Digitaria ciliaris); conditions: foliage application, three weeks after application
Procedure, shortened: (§3)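 Sow seeds spot-wise in sterilized diluvial soil; cover with ~1.5 cm soil. Grow 14 days in greenhouse, 25° C. to 30° C. Spray foliage with emulsion diluted to predetermined amount. Rate effect after 3 weeks.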

green foxtail [15] = test: Test Example 5: herbicidal effect by foliage application, plastic box (Table 20, symbol G); assay type: in vivo, green foxtail (Setaria viridis); conditions: foliage application, three weeks after application
Procedure, shortened: as §3

barnyard grass [16] = test: Test Example 5: herbicidal effect by foliage application, plastic box (Table 20, symbol H); assay type: in vivo, barnyard grass (Echinochloa crus-galli); conditions: foliage application, three weeks after application
Procedure, shortened: as §3

wild oat [17] = test: Test Example 5: herbicidal effect by foliage application, plastic box (Table 20, symbol I); assay type: in vivo, wild oat (Avena fatua); conditions: foliage application, three weeks after application
Procedure, shortened: as §3

blackgrass [18] = test: Test Example 5: herbicidal effect by foliage application, plastic box (Table 20, symbol J); assay type: in vivo, blackgrass (Alopecurus myosuroides); conditions: foliage application, three weeks after application
Procedure, shortened: as §3

Italian ryegrass [19] = test: Test Example 5: herbicidal effect by foliage application, plastic box (Table 20, symbol K); assay type: in vivo, Italian ryegrass (Lolium multiflorum); conditions: foliage application, three weeks after application
Procedure, shortened: as §3

windgrass [20] = test: Test Example 5: herbicidal effect by foliage application, plastic box (Table 20, symbol L); assay type: in vivo, windgrass (Apera spica-venti); conditions: foliage application, three weeks after application
Procedure, shortened: as §3

velvetleaf [21] = test: Test Example 5: herbicidal effect by foliage application, plastic box (Table 20, symbol M); assay type: in vivo, velvetleaf (Abutilon theophrasti); conditions: foliage application, three weeks after application
Procedure, shortened: as §3

redroot pigweed [22] = test: Test Example 5: herbicidal effect by foliage application, plastic box (Table 20, symbol N); assay type: in vivo, redroot pigweed (Amaranthus retroflexus); conditions: foliage application, three weeks after application
Procedure, shortened: as §3

lambsquarters [23] = test: Test Example 5: herbicidal effect by foliage application, plastic box (Table 20, symbol O); assay type: in vivo, lambsquarters (Chenopodium album); conditions: foliage application, three weeks after application
Procedure, shortened: as §3

chickweed [24] = test: Test Example 5: herbicidal effect by foliage application, plastic box (Table 20, symbol P); assay type: in vivo, common chickweed (Stellaria media); conditions: foliage application, three weeks after application
Procedure, shortened: as §3

persian speedwell [25] = test: Test Example 5: herbicidal effect by foliage application, plastic box (Table 20, symbol R); assay type: in vivo, Persian speedwell (Veronica persica); conditions: foliage application, three weeks after application
Procedure, shortened: as §3

[26] = amount of applied herbicide 80 g/ha
[27] = amount of applied herbicide 320 g/ha

For `CCc1nn(C)c(=O)c(-c2c(-c3ccc(C(F)(F)F)cc3)sc3ccc(F)cc23)c1O` [2-410], the “herbicidal effect on H: barnyard grass” value (barnyard grass [1]; [26]) was 4 (Herbicidal rate of 70% or more and less than 90%), the “herbicidal effect on D: Chinese sprangletop” value (Chinese sprangletop; [26]) was 0 (Herbicidal rate of 5% or less (almost no effect)) and the “herbicidal effect on E: rice flat sedge” value (rice flat sedge; [26]) was 1 (Herbicidal rate of 5% or more and less than 20%). For the same compound, the “herbicidal effect, F: southern crabgrass” value (southern crabgrass [2]; [26]) was 0 (Herbicidal rate of 5% or less (almost no effect)), the “herbicidal effect, G: green foxtail” value (green foxtail [3]; [26]) was 1 (Herbicidal rate of 5% or more and less than 20%) and the “herbicidal effect, H: barnyard grass” value (barnyard grass [4]; [26]) was 0 (Herbicidal rate of 5% or less (almost no effect)). For the same compound, the “herbicidal effect, I: wild oat” value (wild oat [5]; [26]) was 0 (Herbicidal rate of 5% or less (almost no effect)), the “herbicidal effect, J: blackgrass” value (blackgrass [6]; [26]) was 0 (Herbicidal rate of 5% or less (almost no effect)) and the “herbicidal effect, K: Italian ryegrass” value (Italian ryegrass [7]; [26]) was 0 (Herbicidal rate of 5% or less (almost no effect)). The “herbicidal effect, L: windgrass” value (windgrass [8]; [26]) was 0 (Herbicidal rate of 5% or less (almost no effect)), the “herbicidal effect, M: velvetleaf” value (velvetleaf [9]; [26]) was 0 (Herbicidal rate of 5% or less (almost no effect)) and the “herbicidal effect, N: redroot pigweed” value (redroot pigweed [10]; [26]) was 3 (Herbicidal rate of 40% or more and less than 70%). The “herbicidal effect, O: lambsquarters” value (lambsquarters [11]; [26]) was 1 (Herbicidal rate of 5% or more and less than 20%), the “herbicidal effect, P: chickweed” value (chickweed [12]; [26]) was 0 (Herbicidal rate of 5% or less (almost no effect)) and the “herbicidal effect, R: persian speedwell” value (persian speedwell [13]; [26]) was 0 (Herbicidal rate of 5% or less (almost no effect)). The “F: southern crabgrass, herbicidal effect grade” value (southern crabgrass [14]; 80 g/ha) was 0 (Herbicidal rate of 5% or less (almost no effect)), the “G: green foxtail, herbicidal effect grade” value (green foxtail [15]; 80 g/ha) was 2 (Herbicidal rate of 20% or more and less than 40%) and the “H: barnyard grass, herbicidal effect grade” value (barnyard grass [16]; 80 g/ha) was 3 (Herbicidal rate of 40% or more and less than 70%). For the same compound, the “I: wild oat, herbicidal effect grade” value (wild oat [17]; 80 g/ha) was 0 (Herbicidal rate of 5% or less (almost no effect)), the “J: blackgrass, herbicidal effect grade” value (blackgrass [18]; 80 g/ha) was 0 (Herbicidal rate of 5% or less (almost no effect)) and the “K: Italian ryegrass, herbicidal effect grade” value (Italian ryegrass [19]; 80 g/ha) was 0 (Herbicidal rate of 5% or less (almost no effect)). For the same compound, the “L: windgrass, herbicidal effect grade” value (windgrass [20]; 80 g/ha) was 0 (Herbicidal rate of 5% or less (almost no effect)), the “M: velvetleaf, herbicidal effect grade” value (velvetleaf [21]; 80 g/ha) was 1 (Herbicidal rate of 5% or more and less than 20%) and the “N: redroot pigweed, herbicidal effect grade” value (redroot pigweed [22]; 80 g/ha) was 3 (Herbicidal rate of 40% or more and less than 70%). For the same compound, the “O: lambsquarters, herbicidal effect grade” value (lambsquarters [23]; 80 g/ha) was 3 (Herbicidal rate of 40% or more and less than 70%), the “P: chickweed, herbicidal effect grade” value (chickweed [24]; 80 g/ha) was 4 (Herbicidal rate of 70% or more and less than 90%) and the “R: persian speedwell, herbicidal effect grade” value (persian speedwell [25]; 80 g/ha) was 4 (Herbicidal rate of 70% or more and less than 90%).
In the case of `CON=C(C)c1ccc(-c2sc3cc(F)ccc3c2-c2c(O)c(C)nn(C)c2=O)cc1` [3-017], the “herbicidal effect on H: barnyard grass” value (barnyard grass [1]; [27]) is reported as 3 (Herbicidal rate of 40% or more and less than 70%), the “herbicidal effect on D: Chinese sprangletop” value (Chinese sprangletop; [27]) is reported as 0 (Herbicidal rate of 5% or less (almost no effect)) and the “herbicidal effect on E: rice flat sedge” value (rice flat sedge; [27]) is reported as 0 (Herbicidal rate of 5% or less (almost no effect)). For the same compound, the “herbicidal effect, F: southern crabgrass” value (southern crabgrass [2]; [27]) was 0 (Herbicidal rate of 5% or less (almost no effect)), the “herbicidal effect, G: green foxtail” value (green foxtail [3]; [27]) was 0 (Herbicidal rate of 5% or less (almost no effect)) and the “herbicidal effect, H: barnyard grass” value (barnyard grass [4]; [27]) was 0 (Herbicidal rate of 5% or less (almost no effect)). For the same compound, the “herbicidal effect, I: wild oat” value (wild oat [5]; [27]) was 0 (Herbicidal rate of 5% or less (almost no effect)), the “herbicidal effect, J: blackgrass” value (blackgrass [6]; [27]) was 0 (Herbicidal rate of 5% or less (almost no effect)) and the “herbicidal effect, K: Italian ryegrass” value (Italian ryegrass [7]; [27]) was 3 (Herbicidal rate of 40% or more and less than 70%). For the same compound, the “herbicidal effect, L: windgrass” value (windgrass [8]; [27]) was 0 (Herbicidal rate of 5% or less (almost no effect)), the “herbicidal effect, M: velvetleaf” value (velvetleaf [9]; [27]) was 0 (Herbicidal rate of 5% or less (almost no effect)) and the “herbicidal effect, N: redroot pigweed” value (redroot pigweed [10]; [27]) was 5 (Herbicidal rate of 90% or more (almost completely withered)). For the same compound, the “herbicidal effect, O: lambsquarters” value (lambsquarters [11]; [27]) was 4 (Herbicidal rate of 70% or more and less than 90%), the “herbicidal effect, P: chickweed” value (chickweed [12]; [27]) was 1 (Herbicidal rate of 5% or more and less than 20%) and the “herbicidal effect, R: persian speedwell” value (persian speedwell [13]; [27]) was 3 (Herbicidal rate of 40% or more and less than 70%). The “F: southern crabgrass, herbicidal effect grade” value (southern crabgrass [14]; 320 g/ha) was 3 (Herbicidal rate of 40% or more and less than 70%), the “G: green foxtail, herbicidal effect grade” value (green foxtail [15]; 320 g/ha) was 5 (Herbicidal rate of 90% or more (almost completely withered)) and the “H: barnyard grass, herbicidal effect grade” value (barnyard grass [16]; 320 g/ha) was 2 (Herbicidal rate of 20% or more and less than 40%). The “I: wild oat, herbicidal effect grade” value (wild oat [17]; 320 g/ha) was 1 (Herbicidal rate of 5% or more and less than 20%), the “J: blackgrass, herbicidal effect grade” value (blackgrass [18]; 320 g/ha) was 3 (Herbicidal rate of 40% or more and less than 70%) and the “K: Italian ryegrass, herbicidal effect grade” value (Italian ryegrass [19]; 320 g/ha) was 4 (Herbicidal rate of 70% or more and less than 90%). The “L: windgrass, herbicidal effect grade” value (windgrass [20]; 320 g/ha) was 2 (Herbicidal rate of 20% or more and less than 40%), the “M: velvetleaf, herbicidal effect grade” value (velvetleaf [21]; 320 g/ha) was 3 (Herbicidal rate of 40% or more and less than 70%) and the “N: redroot pigweed, herbicidal effect grade” value (redroot pigweed [22]; 320 g/ha) was 5 (Herbicidal rate of 90% or more (almost completely withered)). For the same compound, the “O: lambsquarters, herbicidal effect grade” value (lambsquarters [23]; 320 g/ha) was 5 (Herbicidal rate of 90% or more (almost completely withered)), the “P: chickweed, herbicidal effect grade” value (chickweed [24]; 320 g/ha) was 5 (Herbicidal rate of 90% or more (almost completely withered)) and the “R: persian speedwell, herbicidal effect grade” value (persian speedwell [25]; 320 g/ha) was 5 (Herbicidal rate of 90% or more (almost completely withered)).
